Assays:
[1] = tested on: STING (IFN-β in hPBMC); assay: hPBMC cytokine functional assay (IFN-β decrease after Baculovirus stimulation); assay type: cell-based; details: Homo sapiens, Baculovirus MOI 40, 24 hours, read-out: hPBMC_IC50
Summary of the method: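 Thawed hPBMC (70K cells/well) rested ≥3 h, then dosed with compound (final 0.5% DMSO) and infected with Baculovirus at MOI 40. Secreted IFN-β read by HTRF after 24 h at 37 °C. Cell viability checked in parallel by CellTiter-Glo.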

[2] = molecular target: human stimulator of interferon genes (STING) (139-379) (Homo sapiens (Human), UniProt Q86WV6); assay: Microliter plate-based TR-FRET competition-binding assay for binders of STING; details: Alexa488 probe, read-out: FRET_IC50
Sequence of human stimulator of interferon genes (STING) (139-379) (Q86WV6 139-379): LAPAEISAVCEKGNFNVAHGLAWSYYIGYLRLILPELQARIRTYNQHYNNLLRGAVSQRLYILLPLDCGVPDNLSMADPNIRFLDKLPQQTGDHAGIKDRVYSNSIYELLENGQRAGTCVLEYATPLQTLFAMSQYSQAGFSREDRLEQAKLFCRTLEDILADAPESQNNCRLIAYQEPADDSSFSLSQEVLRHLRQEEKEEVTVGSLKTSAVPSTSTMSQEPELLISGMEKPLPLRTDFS
Summary of the method: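 E. coli-expressed C-terminal flag-tagged STING (139-379) at 2.5 nM with 2.5 nM Tb-anti-Flag and 250 nM Alexa488-labelled active-site probe, 30 min at room temperature. TR-FRET 520/485 nm ratio after 320 nm excitation. Percent inhibition calculated relative to the 2′3′cGAMP positive control.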

[3] = Metabolic (liver microsomal) stability assay; details: human liver microsomes, 1 μM test compound
Procedure: The liver microsomal stability assay is used for early assessment of metabolic stability of a test compound in liver microsomes.
Liver microsomes were preincubated with test compound for 10 minutes at 37° C. in 100 mM potassium phosphate buffer, pH 7.4. The reactions were initiated by adding NADPH regenerating system. The final incubation mixtures contained 1 μM test compound, 0.5 mg/mL liver microsomal protein, 1 mM MgCl2, 1 mM NADP, 1 unit/mL isocitric dehydrogenase and 6 mM isocitric acid in 100 mM potassium phosphate buffer, pH 7.4. After incubation times of 0, 3, 6, 9, 15 and 30 minutes at 37° C., 300 μL of cold acetonitrile (including internal standard) was added to 100 μL incubation mixture to terminate the reaction. Following precipitation and centrifugation, the amount of compound remaining in the samples were determined by LC-MS/MS. Controls of no NADPH regenerating system at zero and 30 minutes were also prepared and analyzed.

| SMILES | IC50 [1] [µM] | IC50 [2] [µM] | Clearance of human microsome [3] [mL/min/kg] |
| --- | --- | --- | --- |
| Cn1nc2cccc3c2c1CCCN(CCCN1CC2(COC2)C1)C(=O)[C@@H]1C[C@@H](CN1c1ncnc2c1cnn2-c1ccc(F)cc1F)Oc1cccc-3c1 [Example 31, (8S,11S)-10-[1-(2,4-difluorophenyl)pyrazolo[3,4-d]pyrimidin-4-yl]-18-methyl-13-[3-(2-oxa-6-azaspiro[3.3]heptan-6-yl)propyl]-7-oxa-10,13,18,19-tetrazapentacyclo[15.6.1.1^2,6.1^8,11.0^20,24]hexacosa-1(23),2(26),3,5,17(24),19,21-heptaen-12-one] | 0.517 | 0.0072 | 12.4 |
| CN1CCN(CCCN2CCCc3c4c(cccc4nn3C)-c3cccc(c3)O[C@H]3C[C@@H](C2=O)N(c2ncnc4c2cnn4-c2ccc(F)cc2F)C3)CC1 [Example 32, (8S,11S)-10-[1-(2,4-difluorophenyl)pyrazolo[3,4-d]pyrimidin-4-yl]-18-methyl-13-[3-(4-methylpiperazin-1-yl)propyl]-7-oxa-10,13,18,19-tetrazapentacyclo[15.6.1.1^2,6.1^8,11.0^20,24]hexacosa-1(23),2(26),3,5,17(24),19,21-heptaen-12-one] | 1.1 | 0.0032 | 11.5 |
| CN1CC2CC1CN2CCCN1CCCc2c3c(cccc3nn2C)-c2cccc(c2)O[C@H]2C[C@@H](C1=O)N(c1ncnc3c1cnn3-c1ccc(F)cc1F)C2 [Example 34, (8S,11S)-10-[1-(2,4-difluorophenyl)pyrazolo[3,4-d]pyrimidin-4-yl]-18-methyl-13-[3-(5-methyl-2,5-diazabicyclo[2.2.1]heptan-2-yl)propyl]-7-oxa-10,13,18,19-tetrazapentacyclo[15.6.1.1^2,6.1^8,11.0^20,24]hexacosa-1(23),2(26),3,5,17(24),19,21-heptaen-12-one] | 2.49 | 0.007 | 6.1 |
| Cn1nc2cccc3c2c1CCCN(CCCn1cnnn1)C(=O)[C@@H]1C[C@@H](CN1c1ncnc2c1cnn2-c1ccc(F)cc1F)Oc1cccc-3c1 [Example 36, (8S,11S)-10-[1-(2,4-difluorophenyl)pyrazolo[3,4-d]pyrimidin-4-yl]-18-methyl-13-[3-(tetrazol-1-yl)propyl]-7-oxa-10,13,18,19-tetrazapentacyclo[15.6.1.1^2,6.1^8,11.0^20,24]hexacosa-1(23),2(26),3,5,17(24),19,21-heptaen-12-one] | 1.57 | 0.0013 | 11.9 |
| Cn1nc2cccc3c2c1CCCN(CCC(C)(C)O)C(=O)[C@@H]1C[C@@H](CN1c1ncnc2c1cnn2-c1ccc(F)cc1F)Oc1cccc-3c1 [Example 40, (8S,11S)-10-[1-(2,4-difluorophenyl)pyrazolo[3,4-d]pyrimidin-4-yl]-13-(3-hydroxy-3-methyl-butyl)-18-methyl-7-oxa-10,13,18,19-tetrazapentacyclo[15.6.1.1^2,6.1^8,11.0^20,24]hexacosa-1(23),2(26),3,5,17(24),19,21-heptaen-12-one] | 0.708 | 0.0086 | 15.6 |
| Cn1nc2c(F)ccc3c2c1CCCN(CCCN1CCOCC1)C(=O)[C@@H]1C[C@@H](CN1c1ncnc2c1cnn2-c1ccc(F)cc1F)Nc1cccc-3n1 [Example 44, (8S,11S)-10-[1-(2,4-difluorophenyl)pyrazolo[3,4-d]pyrimidin-4-yl]-21-fluoro-18-methyl-13-(3-morpholinopropyl)-7,10,13,18,19,26-hexazapentacyclo[15.6.1.1^2,6.1^8,11.0^20,24]hexacosa-1(23),2(26),3,5,17(24),19,21-heptaen-12-one] | 0.321 | 0.0063 | 15.8 |

Source: US20260070927A1, “INDAZOLE MACROCYCLES FOR THE TREATMENT OF AUTOIMMUNE DISEASE” (Hoffmann-La Roche Inc., priority 2022, published 2026)
